Activity calls are given as the source filed them. No cut-off for these calls is given here.
Tests used:
[1] = molecular target: T1, Histamine H3 receptor (Homo sapiens, UniProt Q9Y5N1); test: Displacement of [3H]UR-MN259 from SP-FLAG tagged human histamine H3 receptor expressed in HEK293T cells assessed as inhibition constant incubated for 60 min by scintillation counter analysis; format: cell-based
[2] = molecular target: T1, Histamine H3 receptor; test: Binding affinity to SP-FLAG tagged human histamine H3 receptor expressed in HEK293T cells using sodium containing Leibovitz's L-15 medium incubated for 60 min by scintillation counter analysis; format: cell-based
[3] = molecular target: T1, Histamine H3 receptor; test: Displacement of UR-NR266 from NLuc-tagged human histamine H3 receptor expressed in HEK293T cells assessed as inhibition constant incubated for 5 mins followed by UR-NR266 addition by furimazine based NanoBRET competition binding assay; format: cell-based
[4] = molecular target: Histamine H1 receptor (Homo sapiens, UniProt P35367); test: Displacement of [3H]mepyramine from SP-FLAG tagged human histamine H1 receptor expressed in HEK293T cells assessed as inhibition constant incubated for 60 min by scintillation counter analysis; format: cell-based
[5] = molecular target: Histamine H2 receptor (Homo sapiens, UniProt P25021); test: Displacement of [3H]UR-KAT479 from SP-FLAG tagged human histamine H2 receptor expressed in HEK293T cells assessed as inhibition constant incubated for 60 min by scintillation counter analysis; format: cell-based
[6] = molecular target: Histamine H4 receptor (Homo sapiens, UniProt Q9H3N8); test: Displacement of [3H]histamine from SP-FLAG tagged human histamine H4 receptor expressed in HEK293T cells assessed as inhibition constant incubated for 60 min by scintillation counter analysis; format: cell-based
[7] = species: Homo sapiens; test: Selectivity ratio of Ki for human histamine H1 receptor to Ki for human histamine H3 receptor
[8] = species: Homo sapiens; test: Selectivity ratio of Ki for human histamine H2 receptor to Ki for human histamine H3 receptor
[9] = species: Homo sapiens; test: Selectivity ratio of Ki for human histamine H4 receptor to Ki for human histamine H3 receptor
[10] = molecular target: T1, Histamine H3 receptor; test: Antagonist activity at human histamine H3 receptor in HEK293T cells expressing H3R-NlucC/NlucN-mGsi construct using furimazine as substrate assessed as displacement of histamine by MiniG recruitment assay; format: functional, cell-based; conditions: filed as antagonist
[11] = molecular target: T1, Histamine H3 receptor; test: Binding affinity to SP-FLAG tagged human histamine H3 receptor expressed in HEK293T cells; format: cell-based; conditions: tested as the 3H-labelled form
[12] = molecular target: T1, Histamine H3 receptor; test: Binding affinity to SP-FLAG tagged human histamine H3 receptor expressed in HEK293T cells assessed as association time constant incubated for 60 mins by scintillation counting analysis; format: cell-based; conditions: tested as the 3H-labelled form
[13] = molecular target: T1, Histamine H3 receptor; test: Binding affinity to SP-FLAG tagged human histamine H3 receptor expressed in HEK293T cells assessed as dissociation rate constant incubated for 30 mins by scintillation counting analysis; format: cell-based; conditions: tested as the 3H-labelled form
[14] = molecular target: T1, Histamine H3 receptor; test: Binding affinity to SP-FLAG tagged human histamine H3 receptor expressed in HEK293T cells assessed as dissociation time constant incubated for 30 mins by scintillation counting analysis; format: cell-based; conditions: tested as the 3H-labelled form
[15] = molecular target: T1, Histamine H3 receptor; test: Binding affinity to SP-FLAG tagged human histamine H3 receptor expressed in HEK293T cells assessed as association rate constant incubated for 60 mins by scintillation counting analysis; format: cell-based; conditions: tested as the 3H-labelled form
[16] = molecular target: T1, Histamine H3 receptor; test: Agonist activity at human histamine H3 receptor in HEK293T cells expressing H3R-NlucC/NlucN-mGsi construct using furimazine as substrate upto 10 uM by MiniG recruitment assay; format: functional, cell-based
[17] = molecular target: T1, Histamine H3 receptor; test: Binding affinity to SP-FLAG tagged human histamine H3 receptor expressed in HEK293T cells assessed as maximum binding; format: cell-based; conditions: tested as the 3H-labelled form
[18] = molecular target: T1, Histamine H3 receptor; test: Binding affinity to SP-FLAG tagged human histamine H3 receptor expressed in HEK293T cells assessed as dissociation constant by incubated for 30 mins by scintillation counting analysis; format: cell-based
[19] = molecular target: T1, Histamine H3 receptor; test: Binding affinity to SP-FLAG tagged human histamine H3 receptor expressed in HEK293T cells assessed as kinetic dissociation constant incubated for 30 mins by scintillation counting analysis; format: cell-based

T1 sequence (Q9Y5N1 whole entry): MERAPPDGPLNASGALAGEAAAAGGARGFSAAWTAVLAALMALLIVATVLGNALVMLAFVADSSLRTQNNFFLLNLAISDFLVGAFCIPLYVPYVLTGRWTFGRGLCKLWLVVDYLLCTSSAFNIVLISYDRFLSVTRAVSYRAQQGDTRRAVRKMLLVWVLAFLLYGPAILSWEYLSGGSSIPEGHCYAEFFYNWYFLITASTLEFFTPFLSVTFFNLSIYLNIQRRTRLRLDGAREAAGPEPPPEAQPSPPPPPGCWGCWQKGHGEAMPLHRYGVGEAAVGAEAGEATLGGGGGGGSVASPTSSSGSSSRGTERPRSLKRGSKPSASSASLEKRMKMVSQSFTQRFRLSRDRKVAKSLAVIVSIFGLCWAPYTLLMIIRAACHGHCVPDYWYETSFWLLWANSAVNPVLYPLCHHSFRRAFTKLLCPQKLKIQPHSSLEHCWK
Sequence of Histamine H1 receptor (P35367 whole entry): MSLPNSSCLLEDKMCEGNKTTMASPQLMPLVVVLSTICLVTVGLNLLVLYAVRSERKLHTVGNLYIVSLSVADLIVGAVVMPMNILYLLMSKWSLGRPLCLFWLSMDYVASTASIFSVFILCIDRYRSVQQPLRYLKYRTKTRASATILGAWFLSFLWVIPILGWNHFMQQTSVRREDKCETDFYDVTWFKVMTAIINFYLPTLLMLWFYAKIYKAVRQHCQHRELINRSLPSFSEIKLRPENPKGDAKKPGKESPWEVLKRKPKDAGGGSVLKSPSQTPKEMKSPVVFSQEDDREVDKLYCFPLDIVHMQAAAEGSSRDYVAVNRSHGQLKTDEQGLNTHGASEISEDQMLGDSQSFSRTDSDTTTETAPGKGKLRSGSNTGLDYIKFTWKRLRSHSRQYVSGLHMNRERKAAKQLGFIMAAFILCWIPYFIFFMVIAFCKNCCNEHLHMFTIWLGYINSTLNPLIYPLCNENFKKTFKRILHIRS
Sequence of Histamine H2 receptor (P25021 whole entry): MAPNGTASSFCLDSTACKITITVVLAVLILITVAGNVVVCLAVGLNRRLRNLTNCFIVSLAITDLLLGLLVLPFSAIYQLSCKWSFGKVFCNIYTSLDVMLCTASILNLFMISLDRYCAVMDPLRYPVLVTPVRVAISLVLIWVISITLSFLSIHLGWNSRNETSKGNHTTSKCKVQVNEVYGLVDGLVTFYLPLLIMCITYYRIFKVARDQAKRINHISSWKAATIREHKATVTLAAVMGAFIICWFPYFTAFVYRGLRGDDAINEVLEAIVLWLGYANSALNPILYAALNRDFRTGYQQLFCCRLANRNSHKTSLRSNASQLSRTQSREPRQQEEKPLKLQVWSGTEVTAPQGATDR

Ki [1] [nM] | Ki [2] [nM] | Ki [3] [nM] | Ki [4] [nM] | Ki [5] [nM] | Ki [6] [nM] | Ratio Ki [7] | Ratio Ki [8] | Ratio Ki [9] | pKb [10] | Kobs [11] [min⁻¹] | TIME [12] [h] | K [13] [min⁻¹] | TIME [14] [h] | K [15] [M⁻¹ s⁻¹] | Activity [16] | Bmax (disintegrations/minute) [17] | Kd [18] [nM] | Kd [19] [nM] | Kd [2] [nM] | SMILES
5.75 | 28.2 | – | – | – | – | – | – | – | – | – | – | – | – | – | – | – | – | – | – | N=C(N)SCCc1cnc[nH]1 [IMETIT]
0.282 | 0.288 | 0.275 | > 100000 | > 100000 | > 100000 | > 100 | > 100 | > 100 | 9.39 | 0.18 | 0.102 | 0.07 | 0.241 | 3.67e+06 | inactive | 1670 | – | – | – | CCC(=O)NC1CCN(Cc2ccc(OCCCN3CCCCC3)cc2)CC1
– | – | – | – | – | – | – | – | – | – | – | – | – | – | – | – | – | 0.562 | 0.324 | 0.513 | [3H]C([3H])([3H])C([3H])([3H])C(=O)NC1CCN(Cc2ccc(OCCCN3CCCCC3)cc2)CC1

— ChEMBL document CHEMBL5390287, “Discovery of a Tritiated Radioligand with High Affinity and Selectivity for the Histamine H3 Receptor” (ACS Med Chem Lett, 2023)
